Assay results taken from a melting point compilation (Tetko et al.; mined from patent text by program, amines drawn as free bases though some values may be those of a salt).

SMILES | melting point [°C]
CC1(C)OC(=S)Nc2ccc(-c3sccc3C#N)cc21 | 194 to 195
COc1ccc(C(=O)c2cccnc2)cc1[N+](=O)[O-] | 86 to 88
CCOC(=O)C(Oc1ccc2ccccc2c1)C(=O)OCC | 57 to 58.5
Clc1ccc2nc(N3CCN(c4c(Cl)cncc4Cl)CC3)[nH]c2c1 | 258 to 260
CC(C)(C)CC(C)(C)c1cc(-n2nc3ccc(-c4ccsc4)cc3n2)c(O)c(C(C)(C)c2ccccc2)c1 | 147 to 149
CCOC(=O)C1=C(N(C)C)N=C(C)C(C(=O)OCC)C1c1cccc(Cl)c1 (configuration not stated) | 79
CS(=O)(=O)c1ccc(C(=O)c2cc(-c3ccc(S(C)(=O)=O)cc3)c(N3CCOCC3)s2)cc1 | 190
CSCC[C@H](N)C(=O)NC(=O)C(CSC(C)=O)Cc1ccccc1 (some centres not stated) | 119 to 121
Cc1cc2cc(CN3CCCC3)cnc2cc1NC(=O)c1ccc(-c2ccc(Cl)cc2)cc1 | 214 to 217
CN1CCN(Cc2cc(C(=O)c3cccs3)cc(C(C)(C)C)c2O)CC1 | 118 to 119
CSc1cc(C(C)(C)C)c(O)c(C(=O)Nc2ccc(S(=O)(=O)C(F)(F)F)cc2Cl)c1C | 156
CC1(C)NC(=O)c2cc(OCCBr)ccc2O1 | 190 to 195
COc1cccc(Nc2ncc3cc4ccccc4n3n2)c1 | 191 to 193
COc1nc2ccc(Br)cc2cc1C(Br)c1ccccc1 (configuration not stated) | 85 to 86
CC1CC(=O)N(CCCCN2CCN(c3cncc(Cl)n3)CC2)S(=O)(=O)N1 (configuration not stated) | 107 to 109
CCCCN1CC=C(c2cccc3[nH]ccc23)CC1 | 91
O=C(Cc1ccc(Oc2ccccc2)cc1)NC1(C(=O)O)Cc2ccc(-c3ccc(Cl)cc3)cc2C1 (configuration not stated) | 227 to 228
C[C@@H]1C(=O)C=CN2c3ccccc3CC[C@@H]12 (relative stereo) | 148 to 150
COCCc1nc2c(N)nc3ccccc3c2n1Cc1ccccc1 | 202 to 204

SMILES | melting point [°C]
O=C(NC1CCN(CCCOc2ccc3c4c(c(=O)oc3c2)CCC4)CC1)c1cccnc1 | 199 to 200
CCNC(=O)c1cccc2[nH][nH]c(=O)c12 | 209 to 210
Cc1ccc(S(=O)(=O)O[C@@H]2C[C@@H](C(=O)NC(C)(C)C)N(C(=O)OC(C)(C)C)C2)cc1 | 125 to 127
Cc1c(C)c2c(c(C)c1N)CC(C)(CSCCC(=O)O)O2 (configuration not stated) | 139 to 140
CCOC(=O)CN(Cc1ccccc1)c1ncnc2c(N3CCOCC3)nc(N3CCC(N(C)C)CC3)nc12 | 112 to 115
CS(=O)(=O)c1ccc(-c2cnn(CC(F)(F)F)c(=O)c2Oc2ccc(F)cc2)cc1 | 161 to 164
CCOC(=O)C(Oc1ccc(Cl)cc1)C(C)C (configuration not stated) | 88 to 91
CC#CCOc1ccc(S(=O)(=O)N(C)C(C(=O)NO)c2ccc(OCCCNC(=O)OCc3ccccc3)cc2)cc1 (configuration not stated) | 48 to 50
COC(=O)C1=C(c2ccccc2)C(c2ccccc2)OC1=O (configuration not stated) | 113 to 115
COc1cc2c(cc1Nc1ncc(Cl)c(Nc3ccccc3S(=O)(=O)N(C)C)n1)CCN(CC(=O)N1CCC1)CC2 | 75 to 87
CN(C(=O)c1ccc(C(=O)C(C)(C)C)cc1)C(=O)c1ccc(C(=O)C(C)(C)C)cc1 | 122
O=C(c1ccccc1)c1ccc2c(c1)C1(c3ccccc3-2)c2ccccc2-c2ccc(C(=O)c3ccccc3)cc21 | 260 to 261
CCC(C)(C)c1cc(-n2nc3ccccc3n2)c(O)c(C(C)(C)CC)c1 | 77 to 79
Cn1ncc2[nH]c3ccc(Cc4cccc([N+](=O)[O-])c4)cc3c(=O)c21 | 279 to 283
COc1ccc(-n2nnc(-c3ccc(F)cc3F)c2N)cc1 | 152 to 156
CC(=O)c1cc(N2CCCC2)ccc1NC(=O)c1cccc(OCc2ccccc2)c1 | 131 to 133
NC(=O)c1ccc([N+](=O)[O-])c(N2CC2)c1 | 223 to 224
CC(=O)c1ccc(-c2ccc(S)cc2)cc1 | 126 to 128
